Key:
[1] = tested on: NIH3T3; test: Cytotoxicity against mouse NIH/3T3 cells after 96 hrs by sulforhodamine-B assay; format: cell-based
[2] = tested on: FaDu; test: Cytotoxicity against human FADU cells after 96 hrs by sulforhodamine-B assay; format: functional, cell-based
[3] = tested on: SW-1736; test: Cytotoxicity against human SW1736 cells after 96 hrs by sulforhodamine-B assay; format: functional, cell-based
[4] = tested on: HT-29; test: Cytotoxicity against human HT-29 cells after 96 hrs by sulforhodamine-B assay; format: functional, cell-based
[5] = tested on: MCF7; test: Cytotoxicity against human MCF7 cells after 96 hrs by sulforhodamine-B assay; format: functional, cell-based
[6] = tested on: A2780; test: Cytotoxicity against human A2780 cells after 96 hrs by sulforhodamine-B assay; format: functional, cell-based
[7] = Selectivity index, ratio of EC50 for mouse NIH/3T3 cells to EC50 for human MCF7 cells; format: toxicity; details: NIH/3T3 cells and MCF7 cells, read-out: Ratio EC50
[8] = Mus musculus, NIH3T3, 96 h, read-out: EC50
[9] = Homo sapiens, FaDu, 96 h, read-out: EC50
[10] = Homo sapiens, SW-1736, 96 h, read-out: EC50
[11] = Homo sapiens, HT-29, 96 h, read-out: EC50
[12] = Homo sapiens, MCF7, 96 h, read-out: EC50
[13] = Homo sapiens, A2780, 96 h, read-out: EC50

SMILES	EC50 [1, 8]	EC50 [2, 9]	EC50 [3, 10]	EC50 [4, 11]	EC50 [5, 12]	EC50 [6, 13]	EC50 ([1]; nih3t3)	EC50 ([2]; fadu)	EC50 ([3]; sw-1736)	EC50 ([4]; ht-29)	EC50 ([5]; mcf7)	EC50 ([6]; a2780)	selectivity ratio [7]
CC(=O)Oc1ccc(C(=O)NC[C@]2(C)CCC[C@]3(C)c4cc(OC(C)=O)c(C(C)C)cc4CC[C@@H]23)cc1	21.4 µM	20.2 µM	17.2 µM	11.2 µM	10.5 µM	17.9 µM	–	–	–	–	–	–	–
Cc1ccc(C(=O)NC[C@]2(C)CCC[C@]3(C)c4cc(O)c(C(C)C)cc4CC[C@@H]23)cc1	16.8 µM	12.2 µM	7 µM	17.2 µM	8.5 µM	10 µM	–	–	–	–	–	–	–
CC(C)c1cc2c(cc1OC(=O)c1ccccc1)[C@@]1(C)CCC[C@@](C)(CNC(=O)c3ccccc3)[C@@H]1CC2	> 30 µM	> 30 µM	> 30 µM	> 30 µM	> 30 µM	> 30 µM	–	–	–	–	–	–	–
CC(C)c1ccc2c(c1)CC[C@H]1[C@](C)(CNC(=O)c3ccncc3)CCC[C@]21C	16.9 µM	14.4 µM	14.2 µM	10.7 µM	7.9 µM	9.8 µM	–	–	–	–	–	–	–
CC(C)c1ccc2c(c1)CC[C@H]1[C@](C)(CNC(=O)c3ccc(O)cc3)CCC[C@]21C	6.9 µM	14.1 µM	13 µM	8.5 µM	8 µM	8.7 µM	–	–	–	–	–	–	–
CC(C)c1cc2c(cc1O)[C@@]1(C)CCC[C@@](C)(CN)[C@@H]1CC2	22 µM	11.5 µM	13.6 µM	9.5 µM	8.9 µM	17.3 µM	–	–	–	–	–	–	–
CC(=O)Oc1cc2c(cc1C(C)C)CC[C@H]1[C@](C)(CNC(=O)CCCC[C@H]3SCC4NC(=O)NC43)CCC[C@]21C (some centres undefined)	> 30 µM	> 30 µM	> 30 µM	> 30 µM	> 30 µM	> 30 µM	–	–	–	–	–	–	–
CC(C)c1ccc2c(c1)CC[C@H]1[C@](C)(CNC(=O)CCCC[C@H]3SCC4NC(=O)NC43)CCC[C@]21C (some centres undefined)	15.7 µM	24.5 µM	> 30 µM	15.5 µM	11.6 µM	18.6 µM	–	–	–	–	–	–	–
CC(=O)Oc1cc2c(cc1C(C)C)CC[C@H]1[C@](C)(CN)CCC[C@]21C	> 30 µM	13.1 µM	18.3 µM	10.1 µM	10.7 µM	20 µM	–	–	–	–	–	–	–
CC(C)c1cc2c(cc1O)[C@@]1(C)CCC[C@@](C)(CNC(=O)c3ccc(O)cc3)[C@@H]1CC2	> 30 µM	> 30 µM	> 30 µM	> 30 µM	> 30 µM	> 30 µM	–	–	–	–	–	–	–
CC(=O)Oc1cc2c(cc1C(C)C)CC[C@H]1[C@](C)(CNC(=O)c3ccc(Cl)cc3)CCC[C@]21C	> 30 µM	14.4 µM	15.3 µM	11.7 µM	6.1 µM	5 µM	–	–	–	–	–	–	–
COc1ccc(C(=O)NC[C@]2(C)CCC[C@]3(C)c4cc(OC(C)=O)c(C(C)C)cc4CC[C@@H]23)cc1	–	–	–	–	–	–	Nd(Insoluble)	Nd(Insoluble)	Nd(Insoluble)	Nd(Insoluble)	Nd(Insoluble)	Nd(Insoluble)	–
C=C(C)[C@@H]1CC[C@]2(C(=O)O)CC[C@]3(C)[C@H](CC[C@@H]4[C@@]5(C)CC[C@H](O)C(C)(C)[C@@H]5CC[C@]43C)[C@@H]12 [BETULINIC ACID]	12.9 µM	10.7 µM	14.8 µM	16 µM	10.6 µM	9.7 µM	–	–	–	–	–	–	–
COc1ccc(C(=O)NC[C@]2(C)CCC[C@]3(C)c4ccc(C(C)C)cc4CC[C@@H]23)cc1	22.8 µM	17.3 µM	11.2 µM	10.4 µM	4.5 µM	9.1 µM	–	–	–	–	–	–	8.8
CC(=O)Oc1cc2c(cc1C(C)C)CC[C@H]1[C@](C)(CNC(=O)c3ccncc3)CCC[C@]21C	29.5 µM	12.4 µM	12.8 µM	15.3 µM	5.7 µM	14.4 µM	–	–	–	–	–	–	–
COc1ccc(C(=O)NC[C@]2(C)CCC[C@]3(C)c4cc(O)c(C(C)C)cc4CC[C@@H]23)cc1	23.2 µM	20 µM	16.1 µM	13.5 µM	11.7 µM	13.2 µM	–	–	–	–	–	–	–
CC(C)c1ccc2c(c1)CC[C@H]1[C@](C)(CN)CCC[C@]21C	2.4 µM	3.9 µM	4.2 µM	2.1 µM	3 µM	3.8 µM	–	–	–	–	–	–	0.8
Cc1ccc(C(=O)NC[C@]2(C)CCC[C@]3(C)c4ccc(C(C)C)cc4CC[C@@H]23)cc1	13.5 µM	18.9 µM	14.2 µM	22.8 µM	10.4 µM	12.5 µM	–	–	–	–	–	–	–
CC(C)c1cc2c(cc1O)[C@@]1(C)CCC[C@@](C)(CNC(=O)c3ccc(Cl)cc3)[C@@H]1CC2	16 µM	21.9 µM	10.2 µM	10.5 µM	5 µM	6.6 µM	–	–	–	–	–	–	–
CC(=O)Oc1cc2c(cc1C(C)C)CC[C@H]1[C@](C)(CNC(=O)c3ccc(C)cc3)CCC[C@]21C	> 30 µM	12.8 µM	10.7 µM	26.7 µM	11.5 µM	19.4 µM	–	–	–	–	–	–	–
CC(C)c1cc2c(cc1O)[C@@]1(C)CCC[C@@](C)(CNC(=O)c3ccncc3)[C@@H]1CC2	24.2 µM	18.8 µM	27.3 µM	19 µM	4.3 µM	12.9 µM	–	–	–	–	–	–	6.2
CC(C)c1cc2c(cc1O)[C@@]1(C)CCC[C@@](C)(CNC(=O)c3ccccc3)[C@@H]1CC2	18.1 µM	14.8 µM	11.5 µM	16.2 µM	4.8 µM	12.5 µM	–	–	–	–	–	–	–
CC(C)c1cc2c(cc1O)[C@@]1(C)CCC[C@@](C)(CNC(=O)CCCC[C@H]3SCC4NC(=O)NC43)[C@@H]1CC2 (some centres undefined)	> 30 µM	> 30 µM	> 30 µM	> 30 µM	> 30 µM	> 30 µM	–	–	–	–	–	–	–
CC(=O)Oc1cc2c(cc1C(C)C)CC[C@H]1[C@](C)(CNC(=O)c3ccccc3)CCC[C@]21C	17.3 µM	13.4 µM	13.5 µM	9 µM	4.5 µM	8.1 µM	–	–	–	–	–	–	–
CC(C)c1ccc2c(c1)CC[C@H]1[C@](C)(CNC(=O)c3ccc(Cl)cc3)CCC[C@]21C	> 30 µM	> 30 µM	> 30 µM	> 30 µM	> 30 µM	> 30 µM	–	–	–	–	–	–	–
CC(C)c1ccc2c(c1)CC[C@H]1[C@](C)(CNC(=O)c3ccccc3)CCC[C@]21C	> 30 µM	> 30 µM	> 30 µM	> 30 µM	> 30 µM	> 30 µM	–	–	–	–	–	–	–
